Columns and labels:
[1] = test system: NCI-H1975 EGFR D770_N771insSVD cells; assay: growth inhibitory effect in human cancer cell lines (GI50); type: cell-based; details: lung cancer, EGFR exon 20 insertion
A-431 cells = assay: as above; type: cell-based; details: wild-type EGFR gene amplification
Description: (§1) Wild-type EGFR gene amplification without HER2 amplification has been observed in A-431 cells. HCC827 cells (lung cancer) have been reported as harboring an EGFR activating mutation (DelE746_A750). NCI-H1975 cells (lung cancer) have been reported as having activating and acquired EGFR resistance mutations (L858R and T790M).

HCC827 cells = assay: as above; type: cell-based; details: lung cancer, EGFR DelE746_A750
Description: as §1

NCI-H1975 cells = assay: as above; type: cell-based; details: lung cancer, EGFR L858R and T790M
Description: as §1

257 kinases = assay: panel enzyme assay of 257 kinases, whole panel; type: biochemical; details: 1000 nmol/L
Procedure: To investigate further kinase selectivity of Compound (1), a panel enzyme assay of 257 kinases for Compound (1) was conducted.

[2] = test system: intracranial NCI-N87-luc human gastric carcinoma xenografts; assay: intracranial antitumor effect with various dosing schedules, NCI-N87-luc xenografts; type: in vivo, nude mice; details: Day 22; for T/C ratio of the mean total flux: 21 days
Procedure: The intracranial antitumor effect of Compound (1) with various dosing schedules ((i) QD, (ii) intermittent, and (iii) 4 days-on/3 days-off) was evaluated using Compound (1) in nude mice intracranially implanted with NCI-N87-luc cells, which were engineered to stably express the luciferase gene using the HER2-overexpressing NCI-N87 human gastric carcinoma cell line.
Compound (1) dosing suspensions using 0.5% weight per volume (w/v) hydroxypropyl methylcellulose (HPMC) as vehicle were prepared with Compound (1) at 2 dose levels (25.0 or 50.0 mg/kg/day) and orally administered with various dosing schedules ((i) QD, (ii) intermittent, and (iii) 4 days-on/3 days-off) for 21 days. The (i) QD dosing schedule in this example was dosing every day on day 1 to day 21. The (ii) intermittent dosing schedule in this example used sequential 7-day periods that each comprise alternating 4 days-on and 3 days-off. That is, this schedule involved dosing on days 1, 3, 5, 7, 8, 10, 12, 14, 15, 17, 19, and 21. The (iii) 4 days-on/3 days-off dosing schedule was dosing on days 1, 2, 3, 4, 8, 9, 10, 11, 15, 16, 17, and 18. The control group received 0.5% w/v HPMC solution orally once daily for 21 days.

[3] = plasma protein binding, equilibrium dialysis; type: in vitro ADME
Procedure: Plasma protein binding of Compound (1). Plasma protein binding of Compound (1) in mice, rats, dogs, monkeys, and humans was determined using the equilibrium dialysis method.

human BCRP = target: T1, human BCRP (Homo sapiens, UniProt Q9UNQ0); assay: inhibitory effect on human BCRP, bidirectional transport of [^3H]prazosin
T1 sequence (Q9UNQ0 1-655): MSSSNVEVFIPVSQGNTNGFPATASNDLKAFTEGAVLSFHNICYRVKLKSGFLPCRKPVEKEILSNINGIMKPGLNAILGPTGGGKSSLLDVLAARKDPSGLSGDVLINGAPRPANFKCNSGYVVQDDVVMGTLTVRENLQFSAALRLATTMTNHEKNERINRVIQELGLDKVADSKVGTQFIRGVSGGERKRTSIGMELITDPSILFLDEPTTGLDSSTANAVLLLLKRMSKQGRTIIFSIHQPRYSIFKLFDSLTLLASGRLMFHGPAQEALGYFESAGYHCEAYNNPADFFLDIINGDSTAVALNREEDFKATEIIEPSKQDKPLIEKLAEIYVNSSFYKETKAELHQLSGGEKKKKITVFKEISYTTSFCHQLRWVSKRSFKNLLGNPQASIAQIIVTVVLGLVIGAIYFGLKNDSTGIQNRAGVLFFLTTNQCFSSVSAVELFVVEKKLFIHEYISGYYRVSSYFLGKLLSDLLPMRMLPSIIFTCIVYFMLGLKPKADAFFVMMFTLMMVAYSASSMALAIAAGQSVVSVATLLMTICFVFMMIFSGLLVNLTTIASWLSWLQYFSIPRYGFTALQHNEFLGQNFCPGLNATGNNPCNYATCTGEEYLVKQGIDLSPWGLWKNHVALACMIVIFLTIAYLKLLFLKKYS

human P-gp = target: T2, human P-gp (Homo sapiens, UniProt P08183); assay: substrate susceptibility on human P-gp, bidirectional transcellular transport, P-gp/LLC-PK1 cells; type: in vitro ADME
T2 construct: expressed in transfected cells; host or cells: LLC-PK1 (porcine kidney) cells expressing human P-gp; mock/LLC-PK1 as control
T2 sequence (P08183 whole entry): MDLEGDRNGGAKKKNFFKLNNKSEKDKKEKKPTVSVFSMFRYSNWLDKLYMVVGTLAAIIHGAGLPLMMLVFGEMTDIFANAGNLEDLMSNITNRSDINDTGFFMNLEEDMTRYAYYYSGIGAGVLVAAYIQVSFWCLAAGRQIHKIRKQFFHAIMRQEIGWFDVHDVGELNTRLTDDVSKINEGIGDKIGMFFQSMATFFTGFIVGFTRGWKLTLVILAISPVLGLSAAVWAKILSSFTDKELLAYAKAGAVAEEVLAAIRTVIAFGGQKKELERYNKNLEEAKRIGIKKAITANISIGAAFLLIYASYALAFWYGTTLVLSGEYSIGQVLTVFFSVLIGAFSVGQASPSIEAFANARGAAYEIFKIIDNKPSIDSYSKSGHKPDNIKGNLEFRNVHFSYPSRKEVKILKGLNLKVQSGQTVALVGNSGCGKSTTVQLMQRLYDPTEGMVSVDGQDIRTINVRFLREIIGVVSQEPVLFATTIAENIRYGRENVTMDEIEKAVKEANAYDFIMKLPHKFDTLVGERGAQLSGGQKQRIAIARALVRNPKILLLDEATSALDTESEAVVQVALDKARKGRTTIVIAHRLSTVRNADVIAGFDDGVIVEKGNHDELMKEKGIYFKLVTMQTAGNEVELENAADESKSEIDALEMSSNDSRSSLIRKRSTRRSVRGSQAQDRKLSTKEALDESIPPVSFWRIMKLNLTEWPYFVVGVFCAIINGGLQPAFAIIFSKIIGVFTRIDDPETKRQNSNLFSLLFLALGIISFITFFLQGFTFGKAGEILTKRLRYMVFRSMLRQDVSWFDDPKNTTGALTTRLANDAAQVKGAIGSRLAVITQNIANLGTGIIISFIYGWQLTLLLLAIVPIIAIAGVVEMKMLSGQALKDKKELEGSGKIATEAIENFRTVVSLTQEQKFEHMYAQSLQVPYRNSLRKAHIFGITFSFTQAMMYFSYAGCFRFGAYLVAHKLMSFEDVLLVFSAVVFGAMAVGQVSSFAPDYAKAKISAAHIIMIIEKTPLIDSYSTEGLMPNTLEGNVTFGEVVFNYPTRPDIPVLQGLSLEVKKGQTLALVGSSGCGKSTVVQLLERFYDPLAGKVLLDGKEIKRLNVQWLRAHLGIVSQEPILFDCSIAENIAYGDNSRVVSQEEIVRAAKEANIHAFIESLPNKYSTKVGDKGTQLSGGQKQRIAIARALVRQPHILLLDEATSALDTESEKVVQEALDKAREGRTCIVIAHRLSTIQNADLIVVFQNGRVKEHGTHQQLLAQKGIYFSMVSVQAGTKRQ
Procedure: (§2) Substrate susceptibility of Compound (1) on human P-gp. Time-dependence of the bidirectional transcellular transport of 1 μmol/L and 10 μmol/L Compound (1) across human P-gp/Lilly Laboratories Cell-Porcine Kidney 1 (LLC-PK1) cells and mock/LLC-PK1 cells was analyzed. Net flux ratios of some samples incubated with 1 μmol/L Compound (1) for 2 or 3 hours was not calculable as concentrations of these samples were below the lower limit of quantification. […] The net flux ratios of samples incubated with 10 μmol/L Compound (1) for 2, 3, and 4 hours were 1.4±0.4 1.7±0.3, and 1.5±0.2, respectively. The net flux ratios samples incubated with 10 μmol/L Compound (1) with 10 μmol/L zosuquidar for 2, 3, and 4 hours were 1.2±0.3, 1.2±0.1, and 1.1±0.1, respectively.

P-gp = test system: T3, P-gp; assay: as above; type: in vitro ADME; details: human, LLC-PK1, with zosuquidar 10 μmol/L, read-out: net flux ratio
T3 construct: expressed in transfected cells; host or cells: LLC-PK1 (porcine kidney) cells expressing human P-gp; mock/LLC-PK1 as control
Procedure: as §2

[4] = test system: MDA-MB-175VII cells (DOC4-NRG1 fusion); assay: growth inhibitory effect in NRG1 fusion-driven cancer cell line (GI50); type: cell-based; details: Homo sapiens, mean of 3-4 independent experiments
Procedure: GI50 values were also determined for currently approved EGFR/HER2 tyrosine kinase inhibitors: afatinib, osimertinib, tucatinib, lapatinib, and neratinib, and one investigational drug (poziotinib). Mean values were determined from 3-4 independent experiments.

[5] = (ii) intermittent 50.0 mg/kg/day
[6] = (iii) 4 days-on/3 days-off 50.0 mg/kg/day

C=CC(=O)N1C[C@H](n2c(C#CC3CC3)c(C(=O)N[C@H](C)c3ccccc3)c3c(N)ncnc32)C[C@@H]1C [Compound (1), 7-((3R,5S)-1-acryloyl-5-methylpyrrolidin-3-yl)-4-amino-6-(cyclopropylethynyl)-N—((R)-1-phenylethyl)-7H-pyrrolo[2,3-d]pyrimidine-5-carboxamide]
GI50 [1]: 8.71 ± 4.56 nM | GI50 (A-431 cells): 8.64 ± 1.07 nM | GI50 (HCC827 cells): 2.13 ± 0.61 nM | GI50 (NCI-H1975 cells): 37.5 ± 20.4 nM | number of the 257 kinases tested with ≥50% inhibition of activity (257 kinases): 14 | inhibition of activity for the other 243 kinases (257 kinases; weak inhibition or no inhibitory effect): < 50% | T/C ratio of the mean total flux [2, 5]: 3.8% | mean body weight change [2, 5]: −1.0% | T/C ratio of the mean total flux [2, 6]: 8.9% | mean body weight change [2, 6]: 0.3% | fraction unbound ([3]; dog, dogs, 0.2, 2, and 20 μmol/L): 0.02 to 0.026 | fraction unbound ([3]; human, humans, 0.2, 2, and 20 μmol/L): 0.004 to 0.006 | fraction unbound ([3]; monkey, monkeys, 0.2, 2, and 20 μmol/L): 0.015 to 0.02 | fraction unbound ([3]; mouse, mice, 0.2, 2, and 20 μmol/L): 0.005 to 0.012 | fraction unbound ([3]; rat, rats, 0.2, 2, and 20 μmol/L): 0.011 to 0.027 | IC50 (human BCRP): 332 nM | net flux ratio (human P-gp; 1 μmol/L Compound (1), 4 hours, without zosuquidar): 4.7±0.7 | net flux ratio (human P-gp; 10 μmol/L Compound (1) with 10 μmol/L zosuquidar, 3 hours): 1.2±0.1 | net flux ratio (human P-gp; 10 μmol/L Compound (1), 2 hours): 1.4±0.4 | net flux ratio (human P-gp; 10 μmol/L Compound (1), 3 hours): 1.7±0.3 | net flux ratio (human P-gp; 10 μmol/L Compound (1), 4 hours): 1.5±0.2 | substrate susceptibility on human P-gp (human P-gp; transport saturable by increase of concentration): substrate of P-gp | efflux ratio at 4 h, 1 μmol/L (P-gp; 1 μmol/L Compound (1), 4 hours, with 10 μmol/L zosuquidar): 1.5 ± 0.6 | efflux ratio at 2 h, 10 μmol/L (P-gp; 10 μmol/L Compound (1) with 10 μmol/L zosuquidar, 2 hours): 1.2 ± 0.3 | efflux ratio at 4 h, 10 μmol/L (P-gp; 10 μmol/L Compound (1) with 10 μmol/L zosuquidar, 4 hours): 1.1 ± 0.1 | GI50 [4]: 1.2 ± 0.3 nM
